Test results taken from ChEMBL document CHEMBL1122700, “Structure-activity, theoretical, and X-ray studies on the intramolecular interactions in a series of novel histamine H2 receptor antagonists” (1984).

How the values were obtained:
Canis familiaris = test: Inhibition of histamine-stimulated gastric acid secretion in dog after intravenous administration; assay type: functional; settings: Canis lupus familiaris, Stomach
[1] = target: Histamine H2 receptor (Cavia porcellus) (UniProt P47747); test: Histamine H2 receptor affinity was assessed in vitro by antagonism of dimaprit-stimulated chronotropic response in guinea pig right atrium at 0.1 ug/mL; assay type: functional, tissue-based; settings: Cardiac atrium
[2] = target: Histamine H2 receptor (Cavia porcellus) (UniProt P47747); test: Binding constant towards histamine H2 receptor

Sequence of Histamine H2 receptor (Cavia porcellus) (P47747 whole entry): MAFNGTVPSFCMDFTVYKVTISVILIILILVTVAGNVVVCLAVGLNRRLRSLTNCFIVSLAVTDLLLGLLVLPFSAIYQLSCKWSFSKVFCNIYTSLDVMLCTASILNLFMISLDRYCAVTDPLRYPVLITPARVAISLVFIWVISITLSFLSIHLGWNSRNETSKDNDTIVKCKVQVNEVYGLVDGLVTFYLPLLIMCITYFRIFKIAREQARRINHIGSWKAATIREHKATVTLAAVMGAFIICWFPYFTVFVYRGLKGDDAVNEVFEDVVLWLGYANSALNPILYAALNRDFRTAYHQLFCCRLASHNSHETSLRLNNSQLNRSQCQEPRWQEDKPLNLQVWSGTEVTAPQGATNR

Row | Relative potency [1] | -Log KB [2] | Compound | ED50 (Canis familiaris) [mg/kg]
1 | 0.51 | – | CN(C)Cc1cccc(CSCCNc2n[s+]([O-])nc2N)c1 (stereo not drawn) | 0.013
2 | 0.31 | 6.85 | CN(C)Cc1ccc(CSCCNc2n[s+]([O-])nc2N)[nH]1 (stereo not drawn) | 0.17
3 | – | – | CN(C)Cc1ccc(CSCCNc2n[s+]([O-])nc2N)s1 (stereo not drawn) | 0.008
4 | 0.84 | – | CN(C)Cc1cccc(CSCCNc2n[s+]([O-])nc2N)n1 (stereo not drawn) | 0.17
